Test results published in PMC7756582, “Prodrugs of γ‐Alkyl‐Modified Nucleoside Triphosphates: Improved Inhibition of HIV Reverse Transcriptase” (Angewandte Chemie (International Ed. in English), 2020).

Assays:
[1] = Chemical hydrolysis in aqueous phosphate buffer (PBS, pH 7.3); format: physicochemical; details: phosphate buffered saline (PBS); aqueous 25 mM phosphate buffer, pH 7.3, 37 °C; removal of AB group; n.h. = no hydrolysis observed through cleavage of AB-mask; read-out: PBS pH 7.3 t 1/2 (converted)
Method: γ‐(AB,alkyl)‐NTP prodrugs 6 and γ‐alkyl‐NTPs 7 were incubated in aqueous phosphate buffer (PBS, 25 mM, pH 7.3), or were exposed to pig liver esterase (PLE) in phosphate buffer (PBS) and to human CD4^+ T‐lymphocyte cell extracts to study their stability and the product distribution. The hydrolysis mixtures were analyzed by means of analytical rp‐18‐HPLC. The calculated half‐lives of prodrugs 6 (Table 1, t 1/2) reflect the removal of the bioreversible AB group to yield γ‐alkyl‐NTPs 7. Possible hydrolysis pathways and products are summarized in Scheme 4.
As hydrolysis products, a predominant formation of γ‐alkyl‐d4TTPs 7 and a very small amount of d4TDP […] was detected (approximately 3 %). After consumption of the starting material, no further increase of d4TDP concentration was observed. This supports the hypothesis that only the double‐γ‐esterified d4TTP prodrugs 6 were prone to a bond breakage between the γ‐ and β‐phosphate. […] In contrast to previous studies with TriPPPro‐NTPs 5 containing a second cleavable mask (first generation NTP prodrugs),[ ^23 , ^24 , ^25 ] no d4TTP was detected in these studies using 6 or 7. A side reaction occurred during the studies using compounds 7 that led to the formation of thymine by the cleavage of the glycosidic bond as reported before.[ ^19 , ^22 ]
(§1) ProLab 300 from Schott Co.. Thermomixer: Eppendorf Thermomixer 5436 and CellMedia Thermoschüttler basic were used. […]
Chemical hydrolysis of prodrugs of γ-(AB,alkyl) d4TTP 6 as well as the γ-alkyl-NTPs 7,15:
Stock solutions (50mM in DMSO-d6) of compounds 6,7 were prepared. After dilution of 11 µL stock solution with 100 µL milliQ water and 189 µL DMSO-d6 to 1.9mM hydrolysis solutions the reaction was started by addition of 300 µL phosphate buffer saline (PBS, 50mM, pH 7.3). The solution was incubated at 37 C in a thermomixer. An initial aliquot (25 µL) was taken directly and analyzed by analytical HPLC at 265-266 nm. Further aliquots were taken for monitoring the kinetic hydrolysis. The exponential decay curves (pseudo-first order) based on absolute integral values were calculated with commercially available software (OriginPro 9.0G) and yielded the half-lives t1/2 of the prodrugs via one determination. […]
The calculation of t1/2 was performed analogously to that for the chemical hydrolysis studies.
(§2) Preparation of cell extracts: Human CD4+ T-lymphocyte CEM cells were grown in RPMI-1640-based cell culture medium to a final density of ~3·10^6 cells/ml. Then, cells were centrifuged for 10 min at 1,250 rpm at 4 °C, washed twice with cold PBS, and the pellet was re-suspended at 10^8 cells/ml and sonicated (Hielscher Ultrasound Techn., 100% amplitude, 3·times for 10 sec) to destroy cell integrity. The resulting cell suspension was then centrifuged at 10,000 rpm to remove cell debris, and the supernatant divided in aliquots before being frozen at -80 C and used.
(1 picture or pasted object on this page, not shown here)

[2] = Cytotoxicity: inhibition of CD4+ T-cell (CEM) proliferation; format: cell-based; details: human, CEM/0 cells (CD4+ T-cells), 50 % cytostatic concentration, mean±SD, n=2-3
HIV-2(ROD) [3] = test: Anti-HIV activity assay, HIV-2-infected wild-type CEM/0 cell cultures; format: cell-based; details: Human immunodeficiency virus 2, CCRF-CEM, read-out: EC50 CEM/0 HIV-2
Method: (§3) γ‐(AB,alkyl)‐d4TTP prodrugs 6 and the γ‐alkyl‐d4TTPs 7 were evaluated for their ability to inhibit the replication of HIV in HIV‐1‐ or HIV‐2‐infected wild‐type CEM/0 as well as mutant thymidine‐kinase‐deficient CEM cell cultures (CEM/TK^−). For comparison, two TriPPPro derivatives 5 were also included in this assay.
(§4) Anti-HIV activity assay: Inhibition of HIV-1(IIIB)- and HIV-2(ROD)-induced cytopathicity in wild-type CEM/0 and thymidine kinase-deficient CEM/TK- cell cultures was measured in microtiter 96-well plates containing ~3·105 CEM cells/mL infected with 100 CCID50 of HIV per milliliter and containing appropriate dilutions of the test compounds. After 4−5 days of incubation at 37 °C in a CO2-controlled humidified atmosphere, CEM giant (syncytium) cell formation was examined microscopically. […]
(§5) was defined as the compound concentration required to inhibit HIV-induced giant cell formation by 50%. […]
(§6) The result was visualized by fluorescence imaging. […]
as §6

HIV-1(IIIB) = test: Anti-HIV activity assay, HIV-1-infected wild-type CEM/0 cell cultures; format: cell-based; details: Human immunodeficiency virus 1, IIIB, CCRF-CEM; wild-type CEM/0 cells, HIV-1; mean±SD, n=2-3; read-out: EC50 CEM/0 HIV-1
Method: as §3, §4, §5, §6, §6

[4] = Enzyme-catalyzed hydrolysis in human CD4+ T-lymphocyte CEM cell extracts; format: in vitro ADME; details: for half-life at 0.86 mM: CEM/0 cell extracts (CD4+ T-lymphocytes), human CD4+ T-lymphocyte CEM cell extracts, 37 °C, read-out: CEM/0 cell extracts t 1/2 (converted)
Method: The stability of prodrugs 6 and the γ‐alkyl‐NTPs 7 was further investigated in human CD4 ^+ T‐lymphocyte CEM cell extracts. […] Thus, an enzymatic cleavage reaction took place. Half‐lives as low as 0.4 h (6 az) to 5.2 h (6 dz) were determined. […] This is in accordance to our previous results for the DiPPro‐[ ^17 , ^18 ] or the TriPPPro‐compounds 5.[ ^22 , ^23 ] In all cases we observed the predominant formation of γ‐alkyl‐d4TTPs 7 and d4TDP 2 d in very low concentration (Figure 2 B) but no NTP formation was detected, in contrast to the studies using the previously described TriPPPro compounds 5.[ ^23 , ^24 ] However, the difference to the compounds bearing long lipophilic acyl groups was not very pronounced (2‐ to 3‐fold). In the case of γ‐(AB‐C4,alkyl‐C18)‐d4TTP 6 cz, γ‐C18‐d4TTP 7 z was detected as the main product. After 8 h incubation, the ratio of γ‐C18‐d4TTP 7 z and d4TDP 2 d was 5:1. This was in sharp contrast to the studies performed with TriPPPro compounds 5.[ ^23 , ^24 ] There, it was almost impossible to detect significant concentrations of d4TTP due to its fast dephosphorylation to form first d4TDP and finally d4TMP 2 m. […] The formation of thymine or d4TTP 2 t from γ‐C18‐d4TTP 7 z was not detected (Supporting Information, Figure SI2).
as §1
Enzyme-catalyzed hydrolysis of γ-(AB,alkyl)-d4TTPs 6, γ-alkyl-d4TTPs 7,15 and TriPPPros 5 in CEM cell extracts:
18 µL of the appropriate 50 mM DMSO-d6 stock solution was diluted to 6.0 mM hydrolysis solution by addition of 132.0 µL DMSO-d6.
7-10 different samples including 10 µL water and 10 µL hydrolysis solution were prepared in 2 mL Eppendorf® vials. The reaction was started by addition of 50 µL human CEM cell extract and the mixture was incubated at 37 °C for different time periods. The reactions were stopped by addition of 150 μL MeOH. The solution was kept on ice for 5 min followed by centrifugation for 5 min (13000 rpm).
The supernatants were filtered (Chromafil® RC-20/15 MS, 0.2 μm) and stored in liquid nitrogen. When testing, the samples were defrosted and injection volume with 80 μL was used for HPLC analysis. The calculation of t1/2 was performed analogously to that for the chemical hydrolysis studies.
as §2

HIV-2(ROD) [5] = test: Anti-HIV activity assay, HIV-2-infected thymidine-kinase-deficient CEM/TK- cell cultures; format: cell-based; details: for antiviral activity in CEM/TK− cell cultures (in words): HIV-2-infected CEM/TK− cells; for EC50: read-out: EC50 CEM/TK− HIV-2
Method: as §3, §4, §5, §6, §6

[6] = wild-type CEM/0 cells, HIV-2, mean±SD, n=2-3
[7] = Human immunodeficiency virus 2, thymidine-kinase-deficient CEM/TK− cells, HIV-2, mean±SD, n=2-3

SMILES	half-life at 0.92 mM [1] [h]	CC50 [2] [nM]	EC50 (HIV-2(ROD) [3]; [6]) [nM]	EC50 (HIV-1(IIIB)) [nM]	half-life at 0.86 mM [4] [h]	antiviral activity in CEM/TK− cell cultures (in words) (HIV-2(ROD) [5])	EC50 (HIV-2(ROD) [5]; [7]) [nM]	EC50 (HIV-2(ROD) [3]) [nM]	EC50 (HIV-2(ROD) [5]; Human immunodeficiency virus 2, CEM-TK(-)) [nM]	EC50 (HIV-2(ROD) [5]; thymidine-kinase-deficient CEM/TK− cells, HIV-2, mean±SD, n=2-3) [nM]	EC50 (HIV-2(ROD) [5]; thymidine-kinase-deficient CEM/TK− cells, HIV-2, mean±SD, n=2-3, listed as d4T 1) [nM]	stability in cell extracts (in words) ([4]; CEM cell extracts, incubation up to 30 h)
CCCCCCCCC(=O)Oc1ccc(COP(=O)(OCc2ccc(OC(=O)CCCCCCCC)cc2)OP(=O)(O)OP(=O)(O)OCC2C=CC(n3cc(C)c(=O)[nH]c3=O)O2)cc1 (stereo not drawn) [5 a, reference compound]	52	52000 ± 1000	620 ± 300	310 ± 10	1.6	active	2260 ± 1030					
CCCCCCCCCCCCCCCCCC(=O)Oc1ccc(COP(=O)(OCc2ccc(OC(=O)CCCC)cc2)OP(=O)(O)OP(=O)(O)OCC2C=CC(n3cc(C)c(=O)[nH]c3=O)O2)cc1 (stereo not drawn) [5 b, reference compound]	50	33000 ± 7000	100 ± 30	120 ± 50	3.3	active	540 ± 410					
CCCCCCCCCCCCCCCCCCOP(=O)(OCc1ccc(OC(C)=O)cc1)OP(=O)(O)OP(=O)(O)OCC1C=CC(n2cc(C)c(=O)[nH]c2=O)O1 (stereo not drawn) [6 az]	196	17000 ± 5000	500 ± 140	220 ± 50	0.4		390 ± 300					
CCCCCCCCCCCCCCCCCCOP(=O)(OCc1ccc(OC(=O)CC)cc1)OP(=O)(O)OP(=O)(O)OCC1C=CC(n2cc(C)c(=O)[nH]c2=O)O1 (stereo not drawn) [6 bz]	206	11000 ± 4000		190 ± 90	1.6			250	350 ± 250			
CCCCOP(=O)(OCc1ccc(OC(=O)CCCC)cc1)OP(=O)(O)OP(=O)(O)OCC1C=CC(n2cc(C)c(=O)[nH]c2=O)O1 (stereo not drawn) [6 cw]	94	64000 ± 11000	670 ± 880	500 ± 210	0.7	marked loss of activity	9740 ± 3440					
CCCCCCCCCCCCCCCOP(=O)(OCc1ccc(OC(=O)CCCC)cc1)OP(=O)(O)OP(=O)(O)OCC1C=CC(n2cc(C)c(=O)[nH]c2=O)O1 (stereo not drawn) [6 cy]	197	21000 ± 7000	230 ± 180	250	3.4		390 ± 300					
CCCCCCCCCCCCCCCOP(=O)(OCc1ccc(OC(=O)CCCCCC)cc1)OP(=O)(O)OP(=O)(O)OCC1C=CC(n2cc(C)c(=O)[nH]c2=O)O1 (stereo not drawn) [6 dy]	212	18000 ± 4000	160 ± 110	180 ± 10	3.6		920 ± 120					
CCCCCCCCCCCCCCCCCCOP(=O)(OCc1ccc(OC(=O)CCCCCC)cc1)OP(=O)(O)OP(=O)(O)OCC1C=CC(n2cc(C)c(=O)[nH]c2=O)O1 (stereo not drawn) [6 dz]	269	27000 ± 4000	210 ± 60	170	5.2		760 ± 110					
CCCCCCCCCCCCCCCOP(=O)(OCc1ccc(OC(=O)CCCCCCCCCCCCCCC)cc1)OP(=O)(O)OP(=O)(O)OCC1C=CC(n2cc(C)c(=O)[nH]c2=O)O1 (stereo not drawn) [6 ey]	249	48000 ± 31000	860 ± 40	620 ± 300	2.5		3900 ± 3400					
Cc1cn([C@H]2C=C[C@@H](CO)O2)c(=O)[nH]c1=O [Compound 1, 3′‐deoxy‐2′,3′‐didehydrothymidine, reference compound]		> 50000		430 ± 250				220 ± 50		> 50000	150000	
Cc1cn([C@H]2C[C@H](O)[C@@H](COP(=O)(O)OP(=O)(O)OP(=O)(O)O)O2)c(=O)[nH]c1=O [TTP, reference compound]												rapidly enzymatically dephosphorylated
